Source: ChEMBL document CHEMBL3217634, “Synthesis and trypanocidal action of new adamantane substituted imidazolines” (Medchemcomm, 2013)

How the values were obtained:
[1] = system: Trypanosoma brucei; assay: Antitrypanosomal activity against Trypanosoma brucei Lister 427 after 2 days by Alamar Blue fluorescence assay; format: functional, organism-based; settings: Lister 427, 48 h
[2] = Selectivity index, ratio of IC50 for rat L6 cells to IC50 for Trypanosoma brucei Lister 427; format: toxicity, cell-based; settings: L6 cells (versus Trypanosoma brucei Lister 427), read-out: Ratio IC50
[3] = system: L6; assay: Cytotoxicity against rat L6 cells after 6 days by Alamar Blue fluorescence assay; format: cell-based; settings: L6, 144 h

| SMILES | IC50 [1] [µM] | IC90 [1] [µM] | selectivity ratio [2] | IC50 [3] [µM] |
| --- | --- | --- | --- | --- |
| CC1=NCC(C23CC4CC(CC(c5ccccc5)(C4)C2)C3)N1C (stereo not drawn) | 7.16 | 10.3 | – | – |
| NC1=NCC(C23CC4CC(CC(C5CCCC5)(C4)C2)C3)N1 (stereo not drawn) | 2.17 | 2.63 | 7.9 | 17.2 |
| CN1C(N)=NCC1C12CC3CC(CC(C4CCCC4)(C3)C1)C2 (stereo not drawn) | 1.65 | 2.23 | 7.1 | 11.7 |
| CN1C=NCC1C12CC3CC(CC(c4ccccc4)(C3)C1)C2 (stereo not drawn) | 7.91 | 13.1 | – | – |
| C1=NCC(C23CC4CC(CC(C5CCCC5)(C4)C2)C3)N1C1CCCCC1 (stereo not drawn) | 1.82 | 2.41 | 1.9 | 3.46 |
| CC1=NCC(C23CC4CC(CC(C5CCCC5)(C4)C2)C3)N1 (stereo not drawn) | 2.16 | 2.77 | 1.6 | 3.56 |
| NC1=NCC(C23CC4CC(CC(c5ccccc5)(C4)C2)C3)N1 (stereo not drawn) | 7.39 | 11.8 | – | – |
| CN1C(N)=NCC1C12CC3CC(CC(c4ccccc4)(C3)C1)C2 (stereo not drawn) | 4.53 | 5.58 | – | – |
| CC1=NCC(C23CC4CC(CC(c5ccccc5)(C4)C2)C3)N1 (stereo not drawn) | 4.88 | 8.11 | – | – |
| CN1C(N)=NCC1C12CC3CC(CC(C4CCCCC4)(C3)C1)C2 (stereo not drawn) | 1.72 | 2.35 | 4.3 | 7.39 |
| CC1=NCC(C23CC4CC(CC(C5CCCC5)(C4)C2)C3)N1C (stereo not drawn) | 2.97 | 4.51 | 1.3 | 3.77 |
| NC1=NCC(C23CC4CC(CC(C5CCCCC5)(C4)C2)C3)N1 (stereo not drawn) | 1.86 | 2.52 | 10.2 | 19 |
| NC12CC3CC(CC(C3)C1)C2 [AMANTADINE] | > 132 | > 132 | – | – |
| NC1=NCC(C23CC4CC(CC(C5CCCC5)(C4)C2)C3)N1C1CCCCC1 (stereo not drawn) | 0.65 | 0.84 | 5 | 3.22 |
| C1=NCC(C23CC4CC(CC(c5ccccc5)(C4)C2)C3)N1 (stereo not drawn) | 7.09 | 9.02 | – | – |
| C1=NCC(C23CC4CC(CC(C5CCCC5)(C4)C2)C3)N1c1ccccc1 (stereo not drawn) | 16.4 | 24.2 | – | – |
| C1=NCC(C23CC4CC(CC(C5CCCC5)(C4)C2)C3)N1 (stereo not drawn) | 1.57 | 2.42 | 2.4 | 3.7 |
| CN1C=NCC1C12CC3CC(CC(C4CCCC4)(C3)C1)C2 (stereo not drawn) | 1.5 | 1.83 | 3.9 | 5.77 |
| C1=NCC(C23CC4CC(CC(C5CCCCC5)(C4)C2)C3)N1 (stereo not drawn) | 2.89 | 4.2 | 2.5 | 7.22 |
| NC1=NCC(C23CC4CC(CC(C5CCCC5)(C4)C2)C3)N1c1ccccc1 (stereo not drawn) | 11.1 | 15.5 | – | – |
| CC(N)C12CC3CC(CC(C3)C1)C2 (stereo not drawn) [RIMANTADINE] | – | 14 | – | – |
